Literature values, collected in patent US20260373135A1, “Methods of Treatment with Tradipitant” (Vanda Pharmaceuticals Inc., priority 2022, published 2026).

Legend:
CYP3A4 [1] = target: T1, CYP3A4 (Homo sapiens, UniProt P08684); conditions: renal transplant patients; cited from earlier work
CYP3A4 [2] = target: T1, CYP3A4; conditions: human liver microsomes in vitro; cited from earlier work
CYP3A4 [3] = target: T1, CYP3A4; conditions: breast cancer patients; n=16 *22, n=116 wt; cited from earlier work

T1 sequence (P08684 whole entry): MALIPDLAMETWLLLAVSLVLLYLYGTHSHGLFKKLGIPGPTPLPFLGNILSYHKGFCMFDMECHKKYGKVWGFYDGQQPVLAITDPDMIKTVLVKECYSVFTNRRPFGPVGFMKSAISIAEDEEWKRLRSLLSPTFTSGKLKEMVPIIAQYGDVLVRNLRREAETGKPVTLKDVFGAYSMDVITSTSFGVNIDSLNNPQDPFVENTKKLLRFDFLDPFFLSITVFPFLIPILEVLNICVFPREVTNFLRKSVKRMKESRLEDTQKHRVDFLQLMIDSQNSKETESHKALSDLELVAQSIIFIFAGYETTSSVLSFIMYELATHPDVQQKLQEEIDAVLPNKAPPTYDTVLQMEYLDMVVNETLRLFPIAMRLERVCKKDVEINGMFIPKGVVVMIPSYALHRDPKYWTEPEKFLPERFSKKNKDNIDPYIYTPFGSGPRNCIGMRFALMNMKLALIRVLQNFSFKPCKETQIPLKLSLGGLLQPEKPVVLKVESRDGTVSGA

SMILES	clearance in CYP3A4*22 carriers (CYP3A4 [1])	other results
CO[C@H]1C[C@@H]2CC[C@@H](C)[C@@](O)(O2)C(=O)C(=O)N2CCCC[C@H]2C(=O)O[C@H]([C@H](C)C[C@@H]2CC[C@@H](OCCO)[C@H](OC)C2)CC(=O)[C@H](C)/C=C(\C)[C@@H](O)[C@@H](OC)C(=O)[C@H](C)C[C@H](C)/C=C/C=C/C=C/1C [everolimus]	lower clearance	–
CO[C@H]1C[C@@H]2CC[C@@H](C)[C@@](O)(O2)C(=O)C(=O)N2CCCC[C@H]2C(=O)O[C@H]([C@H](C)C[C@@H]2CC[C@@H](O)[C@H](OC)C2)CC(=O)[C@H](C)/C=C(\C)[C@@H](O)[C@@H](OC)C(=O)[C@H](C)C[C@H](C)/C=C/C=C/C=C/1C [sirolimus]	–	metabolic rate with CYP3A4*22 (CYP3A4 [2]): lower
C=CC[C@@H]1/C=C(\C)C[C@H](C)C[C@H](OC)[C@H]2O[C@@](O)(C(=O)C(=O)N3CCCC[C@H]3C(=O)O[C@H](/C(C)=C/[C@@H]3CC[C@@H](O)[C@H](OC)C3)[C@H](C)[C@@H](O)CC1=O)[C@H](C)C[C@@H]2OC [tacrolimus]	reduced	–
CC/C(=C(\c1ccc(O)cc1)c1ccc(OCCNC)cc1)c1ccccc1 [Endoxifen]	–	blood concentrations in CYP3A4*22 carriers vs *1/*1 (CYP3A4 [3]): increased
